The record followed here is patent US20160376240A1, “6 Phenyl or 6 Pyridin 3 YL Indazole Derivatives and Methods of Use” (ABBVIE INC., priority 2014, published 2016).

As a reminder, the IC50 is the concentration at which inhibition is half-maximal. Low readings indicate higher potency, high ones lower potency.

The target of assay [1] is T1, TrkC (Homo sapiens, UniProt Q16288).
T1 construct: purchased Invitrogen PV3617
The experiment in a line: TrkC kinase inhibition, HTRF assay. The assay is classed as biochemical. The conditions noted are these: LCK peptide substrate, assay ATP concentration targeted 5 μM. The method, then: (§1) TrkA, TrkB, and TrkC enzymes were obtained from Invitrogen (as catalog numbers PV3144, PV3616, and PV3617, respectively). The ability of a compound to inhibit the enzymatic activity of the TrkA, TrkB, and TrkC enzymes was determined in separate assays. Enzyme activity was measured in an HTRF® (homogeneous time resolved fluorescence) assay, which detects enzymatic phosphorylation of a biotinylated synthetic peptide substrate (an LCK peptide analog, biotin-ahx-GAEEEIYAAFFA, from Genemed Synthesis). Phosphorylation is assessed by HTRF® in the presence of an anti-phosphotyrosine antibody conjugated to Eu^3+ cryptate (Cisbio) as donor fluorophore, and streptavidin conjugated to allophycocyanin (ProZyme) as acceptor fluorophore. The HTRF® signal was detected at two different wavelengths (620 nm and 665 nm) which were used to calculate the fluorescence ratio.
(§2) Each enzyme was titrated to a concentration optimized to ensure accurate measurement of the initial reaction rate. To allow the Trk enzymes to undergo activation and auto-phosphorylation, a 20 minute pre-incubation with ATP was carried out (at twice the final targeted enzyme and ATP concentration) prior to addition of test compound and the peptide substrate.
(§3) TrkA in vitro assays were performed by pre-incubating TrkA (2-10 nM) with ATP (200 μM) for 20 minutes at ambient temperature in 50 mM HEPES pH 7.4, 10 mM MgCl2, 2 mM MnCl2, 100 μM Na3VO4, 1 mM dithiothreitol, 0.01% BSA (bovine serum albumin). Then, to the activated Trk enzyme mixture was added the test compound in 2% dimethyl sulfoxide. After 10 minutes, the peptide substrate (125 nM) was added. After 1 hour, enzyme reactions were terminated by addition of equal reaction volumes of detection/stop reagent (containing 0.2 μg/mL anti-phosphotyrosine monoclonal antibody labeled with europium from Cisbio (catalog# PT66-K), and 4 μg/mL PhycoLink® Streptavidin-Allophycocyanin conjugate from ProZyme (catalog# PJ25S) in 60 mM EDTA in 40 mM HEPES pH 7.4, 480 mM KF, 0.01% Tween® 20 and 0.1% BSA bovine serum albumin) Reaction plates were stored at 4° C. overnight before reading the fluorescence ratio signal on a PerkinElmer EnVision™ fluorescence detector. Individual reaction wells were stopped at time points to obtain reaction rates. The test inhibitor compounds were assayed in duplicate, at half-log serial dilutions over a range of concentrations (e.g. starting at 50 μM or 5 μM as the high compound concentration). The percent Trk enzyme inhibition was calculated from the initial rates of the inhibited reactions relative to the uninhibited control. IC50 values were calculated by fitting the inhibition percent to the concentration of inhibitor [I] in the assay in equation 1 below, to solve for the IC50.
(§4) Inhibition %=100[I]/([I]+[IC50]) equation 1
(§5) The TrkB and TrkC in vitro assays were performed as described above, except that for these enzymes the assay ATP concentration targeted was 5 μM.
On the technique in general: TR-FRET usually uses a lanthanide donor and a delayed reading to cut background.

Assay [2] addresses T2, TrkB (Homo sapiens, UniProt Q16620).
T2 construct: purchased Invitrogen PV3616
The experiment in a line: TrkB kinase inhibition, HTRF assay. Type of assay: biochemical. The conditions noted are these: LCK peptide substrate, assay ATP concentration targeted 5 μM. The method, then: as §1, §2, §3, §4, §5

The target of assay [3] is T3, TrkA (Homo sapiens, UniProt P04629).
T3 construct: purchased Invitrogen PV3144
T3 sequence (P04629 33-796): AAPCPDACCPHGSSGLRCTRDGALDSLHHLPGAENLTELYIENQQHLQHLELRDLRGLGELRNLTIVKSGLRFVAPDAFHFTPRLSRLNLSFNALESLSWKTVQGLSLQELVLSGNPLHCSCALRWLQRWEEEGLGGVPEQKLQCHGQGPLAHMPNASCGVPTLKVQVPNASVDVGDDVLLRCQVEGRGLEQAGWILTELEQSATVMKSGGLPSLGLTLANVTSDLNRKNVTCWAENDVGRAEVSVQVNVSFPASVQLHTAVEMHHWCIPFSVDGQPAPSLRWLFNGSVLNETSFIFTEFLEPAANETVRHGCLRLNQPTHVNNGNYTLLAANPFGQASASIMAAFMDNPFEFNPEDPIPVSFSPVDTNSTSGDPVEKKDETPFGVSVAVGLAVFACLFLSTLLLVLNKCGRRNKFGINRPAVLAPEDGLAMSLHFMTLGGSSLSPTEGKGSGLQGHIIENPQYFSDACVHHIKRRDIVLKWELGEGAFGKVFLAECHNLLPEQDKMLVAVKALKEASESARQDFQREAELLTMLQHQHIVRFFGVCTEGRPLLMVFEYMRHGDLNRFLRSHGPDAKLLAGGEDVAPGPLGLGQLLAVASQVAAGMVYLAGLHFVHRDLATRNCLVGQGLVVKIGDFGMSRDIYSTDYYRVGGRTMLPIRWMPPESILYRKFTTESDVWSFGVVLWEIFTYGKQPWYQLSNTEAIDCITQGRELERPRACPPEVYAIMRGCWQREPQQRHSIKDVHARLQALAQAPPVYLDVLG
Description: TrkA kinase inhibition, HTRF assay. The assay is classed as biochemical. The conditions noted are these: LCK peptide substrate 125 nM, TrkA 2-10 nM pre-incubated with ATP 200 μM. A digest of the protocol: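 TrkA (2-10 nM) preactivated 20 min with 200 μM ATP in HEPES pH 7.4 with Mg2+/Mn2+, then compound for 10 min, then 125 nM biotinylated LCK-peptide for 1 h at ambient temperature. HTRF 665/620 ratio read; IC50 fitted from initial-rate percent inhibition.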

The subject of assay [4] is rat model of mono-iodoacetic acid induced osteoarthritis pain. Description: Osteoarthritis pain model, hind limb grip force in MIA-treated rats. To be noted: dose 30 mg/kg p.o., mean percent effect, ***p<0.001 vs vehicle-treated animals. Type of assay: in vivo. The method, then: Members of the TrkA inhibitors described above were tested and found effective in reducing osteoarthritis pain. The compounds tested were assessed in an in vivo model well known to those skilled in the art, the rat model of mono-iodoacetic acid induced osteoarthritis pain. A general review of various models of pain can be found in Joshi and Honore, Expert Opinion in Drug Discovery (2004) 1, pp. 323-334, and in the book ‘Drug Discovery and Evaluation, 2nd edition (H. Gerhard Vogel, editor; Springer-Verlag, New York, 2002; pp. 702-706).
Pain behavior was assessed by measurement of hind limb grip force (GF) in adult osteoarthritic rats. Male Sprague Dawley rats, generally weighing 125-150 g, were injected in the unilateral knee join with a single intra-articular injection of sodium monoiodoacetate (MIA). Rats were tested at 21-28 days following MIA injection. A behavioral measure of activity-induced pain was carried out. Measurements of the peak hind limb grip force were conducted by recording the maximum compressive force (CFmax), in grams of force, exerted on a hind limb strain gauge setup, in a commercially available grip force measurement system (Columbus Instruments, Columbus, Ohio).
During testing, each rat was gently restrained by grasping it around its rib cage and then allowed to grasp the wire mesh frame attached to the strain gauge. The experimenter then moved the animal in a rostral-to-caudal direction until the grip was broken. Each rat was sequentially tested twice at an approximately 2-3 minute interval to obtain a raw mean grip force (CFmax). This raw mean grip force data was in turn converted to a maximum hindlimb cumulative compressive force (CFmax), as the grams of force/kg of body weight, for each animal.
For evaluating the compound effects, the hind limb grip force testing in the MIA-treated rats was conducted generally 30-60 minutes after dosing with the test compound. A group of age-matched nave (not injected with MIA) animals was added as a comparator to the drug-dosed groups. The vehicle control response for each group of MIA-treated animals was defined as the 0% response (0% effect), whereas the nave control group was defined as the normal response and as 100% effect. The % effect=(Treatment CFmax−Vehicle CFmax)/Vehicle CFmax]×100). Higher % effect numbers indicate increased relief from the pain in the model, with 100% indicating a return to the level of response seen in normal (non-osteoarthritic) animals. All experiments evaluating drug effects in this model were conducted in a randomized blinded fashion.
Male Sprague Dawley rats (generally 250-300 g body weight at the time of testing) obtained from Charles River Laboratories (Wilmington, Mass.) were used for all experiments, unless indicated otherwise. […]

Structures are written as SMILES.

T1 sequence (Q16288 32-839): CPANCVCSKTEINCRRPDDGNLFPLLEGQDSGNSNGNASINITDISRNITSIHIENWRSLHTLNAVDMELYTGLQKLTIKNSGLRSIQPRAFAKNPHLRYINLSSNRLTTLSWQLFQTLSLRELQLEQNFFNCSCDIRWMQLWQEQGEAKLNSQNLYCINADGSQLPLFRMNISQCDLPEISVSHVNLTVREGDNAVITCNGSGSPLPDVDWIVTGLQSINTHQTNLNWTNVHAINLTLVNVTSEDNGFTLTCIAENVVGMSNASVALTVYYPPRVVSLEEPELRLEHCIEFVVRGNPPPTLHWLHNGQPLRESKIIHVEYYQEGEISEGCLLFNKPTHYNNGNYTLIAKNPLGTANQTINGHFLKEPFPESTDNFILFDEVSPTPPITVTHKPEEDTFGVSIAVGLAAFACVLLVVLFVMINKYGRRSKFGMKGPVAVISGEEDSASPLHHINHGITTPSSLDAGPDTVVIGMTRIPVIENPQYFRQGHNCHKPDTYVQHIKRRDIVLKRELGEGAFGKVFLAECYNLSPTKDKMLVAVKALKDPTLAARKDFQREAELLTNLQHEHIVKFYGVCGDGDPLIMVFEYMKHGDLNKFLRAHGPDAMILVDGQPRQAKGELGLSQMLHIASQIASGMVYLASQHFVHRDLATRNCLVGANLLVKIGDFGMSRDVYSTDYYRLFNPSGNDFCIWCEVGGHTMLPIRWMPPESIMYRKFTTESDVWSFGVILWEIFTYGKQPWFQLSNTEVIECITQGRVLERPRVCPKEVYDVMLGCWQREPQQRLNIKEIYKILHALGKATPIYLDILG
T2 sequence (Q16620 32-822): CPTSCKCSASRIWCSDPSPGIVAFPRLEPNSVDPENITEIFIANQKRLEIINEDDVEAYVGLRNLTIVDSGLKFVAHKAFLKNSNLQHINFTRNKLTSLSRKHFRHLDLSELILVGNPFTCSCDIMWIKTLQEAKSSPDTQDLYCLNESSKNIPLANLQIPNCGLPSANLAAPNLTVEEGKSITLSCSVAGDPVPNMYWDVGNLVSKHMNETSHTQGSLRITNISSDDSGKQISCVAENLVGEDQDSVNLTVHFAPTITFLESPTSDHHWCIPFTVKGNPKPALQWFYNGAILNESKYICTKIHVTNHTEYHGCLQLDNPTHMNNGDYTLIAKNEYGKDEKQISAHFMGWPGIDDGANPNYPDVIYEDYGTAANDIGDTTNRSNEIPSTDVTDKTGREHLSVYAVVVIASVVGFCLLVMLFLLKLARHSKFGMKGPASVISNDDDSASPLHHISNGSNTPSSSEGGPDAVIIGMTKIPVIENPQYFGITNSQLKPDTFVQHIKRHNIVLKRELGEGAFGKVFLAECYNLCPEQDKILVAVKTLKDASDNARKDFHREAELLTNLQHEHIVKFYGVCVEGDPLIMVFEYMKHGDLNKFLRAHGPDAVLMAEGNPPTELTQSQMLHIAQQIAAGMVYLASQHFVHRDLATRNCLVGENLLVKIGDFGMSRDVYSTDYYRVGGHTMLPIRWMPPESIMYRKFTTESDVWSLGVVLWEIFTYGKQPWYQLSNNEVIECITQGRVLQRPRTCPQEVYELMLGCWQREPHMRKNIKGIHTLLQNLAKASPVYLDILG

For `CNC(=O)c1ccc(-c2cc(O[C@H](C)C(F)(F)F)c3c(N)n[nH]c3c2)cc1N1CCN(C2CCCCC2)CC1` [Example 56, 4-(3-amino-4-{[(2R)-1,1,1-trifluoropropan-2-yl]oxy}-1H-indazol-6-yl)-2-(4-cyclohexylpiperazin-1-yl)-N-methylbenzamide], the IC50 came to 37.1 nM in assay [1], 27.8 nM in assay [2] and 80 nM in assay [3].
Turning to `NC(=O)c1ccc(-c2cc(OC3CCCC3)c3c(N)n[nH]c3c2)cc1N1CCN(c2cccnc2)CC1` [Example 69, 4-[3-amino-4-(cyclopentyloxy)-1H-indazol-6-yl]-2-[4-(pyridin-3-yl)piperazin-1-yl]benzamide], the figures for the half-inhibitory concentration (IC50) in assay [1], in assay [2] and in assay [3] were 3.09 nM, 1.63 nM and 2.95 nM, respectively.
On the same counts, the results for `NC(=O)c1ccc(-c2cc(OC3CCCC3)c3c(N)n[nH]c3c2)cc1N1CCN(CCN2CCOCC2)CC1` [Example 70, 4-[3-amino-4-(cyclopentyloxy)-1H-indazol-6-yl]-2-{4-[2-(morpholin-4-yl)ethyl]piperazin-1-yl}benzamide] are 145 nM, 83.7 nM and 34.9 nM.
On the same counts, the results for `NC(=O)c1ccc(-c2cc(OC3CCCC3)c3c(N)n[nH]c3c2)cc1N1CCN(c2ccccc2)CC1` [Example 71, 4-[3-amino-4-(cyclopentyloxy)-1H-indazol-6-yl]-2-(4-phenylpiperazin-1-yl)benzamide] are 1.67 nM, 1.5 nM and 4.92 nM.
The corresponding values for `NC(=O)c1ccc(-c2cc(OC3CCCC3)c3c(N)n[nH]c3c2)cc1N1CCN(c2ccc(F)cc2)CC1` [Example 72, 4-[3-amino-4-(cyclopentyloxy)-1H-indazol-6-yl]-2-[4-(4-fluorophenyl)piperazin-1-yl]benzamide] are 5.35 nM, 4.92 nM and 17.5 nM.
Take `CC(C)(C)OC(=O)N1CCN(c2cc(-c3cc(OC4CCCC4)c4c(N)n[nH]c4c3)ccc2C(N)=O)CC1` [Example 73, tert-butyl 4-{5-[3-amino-4-(cyclopentyloxy)-1H-indazol-6-yl]-2-carbamoylphenyl}piperazine-1-carboxylate]: the figures for the IC50 in assay [1], in assay [2] and in assay [3] were 3.53 nM, 3.17 nM and 13.7 nM, respectively.
With `NC(=O)c1ccc(-c2cc(OC3CCCC3)c3c(N)n[nH]c3c2)cc1N1CCN(C2CCCCC2)CC1` [Example 74, 4-[3-amino-4-(cyclopentyloxy)-1H-indazol-6-yl]-2-(4-cyclohexylpiperazin-1-yl)benzamide], the IC50 in assay [1] was found to be 8.32 nM; in assay [2], 3.89 nM; in assay [3] it was 19 nM.
On the same counts, the results for `CC(=O)N1CCN(c2cc(-c3cc(OC4CCCC4)c4c(N)n[nH]c4c3)ccc2C(N)=O)CC1` [Example 77, 2-(4-acetylpiperazin-1-yl)-4-[3-amino-4-(cyclopentyloxy)-1H-indazol-6-yl]benzamide] are 158 nM, 84.4 nM and 51.1 nM.
On the same counts, the results for `CC(Oc1cc(-c2ccc(C(N)=O)c(N3CCN(c4cccnc4)CC3)c2)cc2[nH]nc(N)c12)C(F)(F)F` (centres unmarked) [Example 91, 4-{3-amino-4-[(1,1,1-trifluoropropan-2-yl)oxy]-1H-indazol-6-yl}-2-[4-(pyridin-3-yl)piperazin-1-yl]benzamide] are 2.89 nM, 2.01 nM and 5.31 nM.
As to `CC(Oc1cc(-c2ccc(C(N)=O)c(N3CCN(c4ccccc4)CC3)c2)cc2[nH]nc(N)c12)C(F)(F)F` (centres unmarked) [Example 92, 4-{3-amino-4-[(1,1,1-trifluoropropan-2-yl)oxy]-1H-indazol-6-yl}-2-(4-phenylpiperazin-1-yl)benzamide], the IC50 in assay [1] turned out to be 1.72 nM; in assay [2], 1.27 nM; in assay [3] it was 3.35 nM.
On the same counts, the results for `CC(C)N1CCN(c2cc(-c3cc(OC(C)C(F)(F)F)c4c(N)n[nH]c4c3)ccc2C(N)=O)CC1` (centres unmarked) [Example 101, 4-{3-amino-4-[(1,1,1-trifluoropropan-2-yl)oxy]-1H-indazol-6-yl}-2-(4-isopropylpiperazin-1-yl)benzamide] are 305 nM, 317 nM and 377 nM.
On the same counts, the results for `CNC(=O)c1ccc(-c2cc(OC(C)C)c3c(N)n[nH]c3c2)cc1N1CCN(C2CCCCC2)CC1` [Example 109, 4-(3-amino-4-isopropoxy-1H-indazol-6-yl)-2-(4-cyclohexylpiperazin-1-yl)-N-methylbenzamide] are 4.89 nM, 2.58 nM and 15.7 nM.
The corresponding values for `CNC(=O)c1ccc(-c2cc(OC3CCOCC3)c3c(N)n[nH]c3c2)cc1N1CCN(CC2CCCC2)CC1` [Example 110, 4-[3-amino-4-(tetrahydro-2H-pyran-4-yloxy)-1H-indazol-6-yl]-2-[4-(cyclopentylmethyl)piperazin-1-yl]-N-methylbenzamide] are 2.58 nM, 1.63 nM and 2.73 nM.
As for `CNC(=O)c1ccc(-c2cc(OC3CCOCC3)c3c(N)n[nH]c3c2)cc1N1CCN(c2ncc(F)cn2)CC1` [Example 113, 4-[3-amino-4-(tetrahydro-2H-pyran-4-yloxy)-1H-indazol-6-yl]-2-[4-(5-fluoropyrimidin-2-yl)piperazin-1-yl]-N-methylbenzamide], the “% Effect” value in assay [4] is 89%***. In assay [3], this compound yielded a concentration for half-maximal inhibition (IC50) of 4.74 nM.
For `CC(=O)Nc1ccc(-c2cc(OC3CCOCC3)c3c(C)n[nH]c3c2)cc1OCCOc1ccccc1` [Example 130, N-{4-[3-methyl-4-(tetrahydro-2H-pyran-4-yloxy)-1H-indazol-6-yl]-2-(2-phenoxyethoxy)phenyl}acetamide], the IC50 was found to be 1.5 nM in assay [1], 1.5 nM in assay [2] and 13.7 nM in assay [3].
